The text below walks through data of patent US5563142A, “Diaromatic substituted compounds as anti-HIV-1 agents” (The Upjohn Company, priority 1994, dated 1996).

For assay [1], the target named is T1, viral reverse transcriptase (Human immunodeficiency virus type 1 group M subtype B, UniProt P04585).
T1 construct: Viral reverse transcriptase is found in extracts from bacterial clones; made in house; host or cells: Escherichia coli (extracts of bacterial clones, by the procedure of Larder et al., EMBO J. 6:3133-3137, 1987)
The experiment in a line: Viral reverse transcriptase inhibition, cell free assay. The following applies: poly rC or poly rG template; for inhibition at 100 µM: read-out: RT % INHIBITION (100 μM), 100 μM. Format: biochemical, human immunodeficiency virus (HIV-1). The text has this: The utility of the diaromatic substituted piperazines (III), the anti-AIDS piperazines (IV) and the indoles (V) of this invention can be determined by their ability to inhibit viral reverse transcriptase, an enzyme essential for human immunodeficiency virus replication. This enzyme has characteristics which differentiate it from other known cellular polymerases and it is a unique enzyme which is not found in uninfected cells. Viral reverse transcriptase is found in extracts from bacterial clones prepared according to the procedure described in AIDS Virus Reverse Transcriptase defined by high level expression in Escherichia coli, EMBO J. 6:3133-3137 (1987). Inhibition of this enzyme is determined in a cell free assay which measures the level of radioactive precursors incorporated into DNA. Extracts prepared according to the procedure of Science, 1125-1129 (1981) are incubated in a mixture of inhibitor, 20 mM dithiothreitol, 60 mM sodium chloride, 0.05% NP-40, 10 mM magnesium chloride, 50 mM Tris pH 8.3, 10 μM [^35 S]-labeled deoxynuleoside-5'-triphosphate, 10 μg/ml RNA template (poly rC or poly rG) and 5 μg/ml DNA primer (oligo dG or oligo dT) for 30 minutes at 37° C. Incorporation of radio-labeled percursor is determined by spotting aliquots of the reaction mixture on DE81 paper, washing the papers to remove unincorporated percursor, drying and determining counts. The results (IC50 means the concentration, in μM of drug, required to inhibit the reverse transcriptase activity to the extent of 50%) of various assay(s) are combined and reported as % inhibition and IC50 (calculated).
^1 Viral reverse transcriptase is found in extracts from bacterial
clones prepared according to the procedure described by Larder, B.,
Purifoy D., Powell, K. and Darby, G., AIDS virus reverse transcriptase
defined by high level expression in Escherichia coli., EMBO J. 6,
3133-3137 (1987). Inhibition of this enzyme is determined in a cell free
assay which measures the level of radioactive precursors incorporated int
DNA. Extracts prepared according to the procedure of Kleid, D. G., et
al., Science, 1125-1129 (1981) are incubated in a mixture of inhibitor, 2
mM dithiothreitol, 60 mM sodium chloride, 0.05% NP40, 10 mM magnesium
chloride, 50 mM Tris pH 8.3, 10 μM [^35 Slabeled
deoxynucleoside5triphosphate, 10 μg/ml RNA template (poly rC or poly
rG) and 5 μg/ml DNA primer (oligo dG or oligo dT) for 15 minutes at
37°. Incorporation of radio labeled precursor is determined by
harvesting the trichloroacetic acid precipitated reaction mixtures on
glass fiber filters, drying, and determining counts. The results of
various assays are combined and reported as % inhibition at a 100 μM

Assay [2] deals with HIV in primary human peripheral blood lymphocytes. The experiment in a line: Primary PBL assay: inhibition of viral replication (p24 & RNA). Format: cell-based. The following applies: primary human lymphocytes infected with HIV, days three and four, read-out: PBL INHIBITION OF VIRAL REPLICATION (p24 & RNA) ED50. As to the method:
^3 The utility of the compounds of the invention is further
infection in primary peripheral blood lymphocytes (primary PBL assay). Th
primary PBL assay offers the following advantages:
(a) The assays are performed with primary human lymphocytes. Thereby,
undesired testing of transformed cell lines is avoided in which host cell
and virus may have undergone processes of mutual adaptation. Performance
of cell culture in serum containing media closely mimics the in vivo
situation. (b) The primary PBL assay distinguishes between true antiviral
effect which is due to the drug and cytostatic/cytotoxic reactions. (c)
Viral replication is precisely followed by kinetic measurement of viral
nucleic acids and proteins. (d) Nucleic acids (total HIVRNA intra and
extracellular) and protein (secreted p24) are measured in parallel which
permits one to differentiate between the compound's effect on virus
replication and on the expression of viral proteins. This leads to
additional information regarding the efficacy of the test compound. (e)
Tolerance of the cell culture against low amounts of organic solvents als
permits the investigation of hydrophobic substances. (f) The dose of the
drug causing half maximal suppression of virus replication is determined.
(g) The screening system is standardized and automated to a high degree.
The primary PBL assay uses the following procedure:
Effects of the compounds of the invention on cell proliferation are determined by lymphocyte proliferation assays. Starting with a 100 micromolar solution, the compound is serially diluted 10 fold. One tenth of the concentration of a compound causing half maximal inhibition of cellular proliferation is employed for all subsequent testing.
Peripheral human lymphocytes are isolated by density gradient centrifugation. After stimulation by mitogen the cells are infected with a standardized preparation of HIV. Subsequently, the infected cells are cultured in the presence of the drug for four days. Individual cultures are established to measure viral replication three and four days following infection. Untreated cells and AZT-treated cells are included as controls in parallel with the drugs under investigation.
The amount of viral core protein p24 synthesized and release by the infected cells is determined in the supernatant by the capture-ELISA technique on days three and four. By comparing with a standard preparation, the amount of protein produced by the virus infected cells is quantified.
The total amount of viral RNA synthesized by the infected lymphocytes is determined by a special nucleic acid hybridization on days three and four of culture. By including a standard preparation of HIV-RNA the amount of synthesized RNA is quantified.
In addition, viability of HIV-infected cells is determined in parallel with assays for viral p24 and RNA. In order to evaluate the half maximal antiviral effect of the drug, a concentration dependency of the drug action is measured.
Numerous examples of the compounds of the invention are assayed according to this procedure. The anti-HIV activity, as measured by the inhibition of the release of core p24 protein in HIV infected human lymphocytes, is used to calculate ED50 -antiviral (the concentration required to give a 50% reduction in p24 synthesis).

[3] abbreviates: Human immunodeficiency virus 1, Lymphocyte.

The structures appear in SMILES notation. Structures can show the parent of a compound that is named as a salt. Where two headings read alike, the source gives them in different places.

A word on the inhibition: it is how much of the control response was suppressed.

Consider `CC(C)Nc1cncnc1N1CCN(C(=O)c2cc3cc(F)ccc3[nH]2)CC1` [Example 48, 1-(5-Fluoroindolyl-2-carbonyl)-4-[5-(1-methylethylamino)-4-pyrimidinyl]piperazine], for which the inhibition at 100 µM in assay [1] was in the range of 63 to 92%. Further, the EC50 in assay [2] (setting [3]) is 10 to 100 nM.
As for `CC(C)Nc1cccnc1N1CCN(C(=O)c2nc3ccccc3[nH]2)CC1` [Example 62], in assay [1] (100 μM), the “RT % INHIBITION (100 μM)” value is reported as 64-78%. Moreover, in assay [2], the EC50 lay within 1000 to 10000 nM.
For the compound `CC(C)(C)CNc1cccnc1N1CCN(C(=O)c2cc3cc(F)ccc3[nH]2)CC1` [Example 102, 1-[5-Fluoroindolyl-2-carbonyl]-4-[3-(2',2'-dimethylpropylamino)-2-pyridinyl]piperazine], the inhibition at 100 µM in assay [1] was found to be 48%. Besides, in assay [2] (setting [3]), the EC50 amounted to 10000 nM.
Regarding `CC(C)Nc1cccnc1N1CCN(C(=O)c2cc3cc([N+](=O)[O-])ccc3[nH]2)CC1` [Example 103, 1-[5-Nitroindolyl-2-carbonyl]-4-[3-(1-methylethylamino)-2-pyridinyl]piperazine], the inhibition at 100 µM in assay [1] stood at 72%. Further, the EC50 in assay [2] (setting [3]) was less than 10 nM.
The corresponding values for `CC(C)Nc1ccnnc1N1CCN(C(=O)c2cc3ccccc3[nH]2)CC1` [Example 49, 1-(Indolyl-2-carbonyl)-4-[4-(1-methylethylamino)-3-pyridazinyl]piperazine, methane sulfonate] are 84 to 94% and not above 100 nM.
Turning to `COCC(C)Nc1cccnc1N1CCN(C(=O)c2cc3cc(F)ccc3[nH]2)CC1` (stereo not drawn) [Example 106, 1-[5-Fluoroindolyl-2-carbonyl]-4-[3-(2-methoxy-1-methylethylamino)-2-pyridinyl]piperazine], the inhibition at 100 µM in assay [1] was in the range of 76 to 81%. The EC50 in assay [2] (setting [3]) was not above 1 nM.
With `O=C(c1cc2ccccc2[nH]1)N1CCN(c2ncccc2NC2CCCC2)CC1` [Example 56, 1-(Indolyl-2-carbonyl)-4-(3-cyclopentylamino-2-pyridinyl)piperazine], the inhibition at 100 µM in assay [1] is 79 to 93%. For the same compound, in assay [2] (setting [3]), the EC50 is 100 to 1000 nM.
Consider `COc1cc2[nH]c(C(=O)N3CCN(c4ncccc4NC(C)C)CC3)cc2cc1F` [Example 91, 1-[5-Fluoro-6-methoxyindolyl-2-carbonyl]-4-[3-(1-methylethylamino)-2-pyridinyl]piperazine], for which, in assay [1], the inhibition at 100 µM lay within 85 to 91%. The EC50 in assay [2] (setting [3]) came to 100 nM.
Consider `O=C(c1cc2cc(F)ccc2[nH]1)N1CCN(c2ncccc2NCC(F)(F)F)CC1` [Example 34, 1-[5-Fluoroindolyl-2-carbonyl]-4-[3-(2,2,2-trifluoroethylamino)-2-pyridinyl]piperazine], for which the inhibition at 100 µM in assay [1] came out at 41%. For the same compound, the EC50 in assay [2] (setting [3]) was less than 10000 nM.
As for `CC(C)Nc1cccnc1N(C)CCCN(C)C(=O)c1cc2ccccc2[nH]1` [Example 53, N,N'-Dimethyl-N-(indolyl-2-carbonyl)-N'-[3-(1-methylethyl-amino)-2-pyridyl]-1,3-propanediamine], the inhibition at 100 µM in assay [1] was 82 to 94%. For the same compound, in assay [2] (setting [3]), the EC50 lay within 1 to 10 nM.
The corresponding values for `COc1cc2[nH]c(C(=O)N3CCN(c4ncccc4NC(C)C)CC3)cc2cc1Br` [Example 94, 1-[5-Bromo-6-methoxyindolyl-2-carbonyl]-4-[3-(1-methylethylamino)-2-pyridinyl]piperazine] are 85% and 10 to 100 nM.
Regarding `C=CCNc1cccnc1N1CCN(Cc2cc(C)c(OC)c(C)c2)CC1` [Example 116, 1-[4-Methoxy-3,4-dimethylbenzyl]-4-(3-(2-propenylamino)-2-pyridinyl]piperazine, hydrochloride], the inhibition at 100 µM in assay [1] was in the range of 45 to 52%. Also, the EC50 in assay [2] (setting [3]) is less than 10000 nM.
As for `CC(C)Nc1ccnnc1N1CCN(C(=O)c2cc3cc(F)ccc3[nH]2)CC1` [Example 50, 1-(5-Fluoroindolyl-2-carbonyl)-4-[4-(1-methylethyl)amino)-3-pyridazinyl]piperazine, methane sulfonate], the inhibition at 100 µM in assay [1] was 84 to 97%. Besides, in assay [2] (setting [3]), the EC50 came out at 100 nM.
The matching figures for `CNc1cccnc1N1CCN(C(=O)c2cc3ccccc3[nH]2)CC1` [Example 65, 1-(Indolyl-2-carbonyl)-4-[3-(methylamino)-2-pyridinyl]piperazine]: 81 to 93% and not above 1 nM.
The corresponding values for `Cc1c(C(=O)N2CCN(c3ncccc3NC(C)C)CC2)[nH]c2ccccc12` [Example 73, 1-[3-methylindolyl-2-carbonyl]-4-[3-(1-methylethylamino)-2-pyridinyl]piperazine] are 94 to 95% and less than 1 nM.
The matching figures for `Cc1ccc2[nH]c(C(=O)N3CCN(c4ncccc4NC(C)C)CC3)cc2c1` [Example 89, 1-[5-Methylindolyl-2-carbonyl]-4-[3-(1-methylethylamino)-2-pyridinyl]piperazine]: 61 to 74% and 100 nM.
In the case of `CC(C)Nc1cccnc1N1CCN(C(=O)c2cc3ccc(F)cc3[nH]2)CC1` [Example 132], in assay [1], the inhibition at 100 µM was in the range of 95 to 98%. Besides, the EC50 in assay [2] (setting [3]) is 1 to 10 nM.
As for `CC(C)Nc1cccnc1N1CCN(C(=O)c2cc3cc(N)ccc3[nH]2)CC1` [Example 101, 1-[5-Aminoindolyl-2-carbonyl]-4-[3-(1-methylethylamino)-2-pyridinyl]-piperazine], in assay [1], the inhibition at 100 µM is 93 to 96%. The EC50 in assay [2] (setting [3]) came to 10 nM.
The matching figures for `CC(C)Nc1cccnc1N1CCN(C(=O)c2ccc[nH]2)CC1` [Example 69, 1-[Pyrrolyl-2-carbonyl]-4-[3-(1-methylethylamino)-2-pyridinyl]piperazine]: 95% and 100 nM.
On to `CC(C)Nc1cccnc1OCCN(C)C(=O)c1cc2ccccc2[nH]1` [Example 58, 2-(2-(N-Methyl-N-(indolyl-2-carbonyl)amino)ethoxy)-3-(1-methylethylamino)pyridine], for which, in assay [1], the inhibition at 100 µM was 94 to 98%. For the same compound, the EC50 in assay [2] (setting [3]) is less than 100 nM.
Regarding `CNc1cccnc1N1CCN(C(=O)c2cc3cc(OC)ccc3[nH]2)CC1` [Example 64, 1-(5-Methoxyindolyl-2-carbonyl)-4-[3-(methylamino)-2-pyridinyl]piperazine], in assay [1], the inhibition at 100 µM was in the range of 88 to 94%. For the same compound, the EC50 in assay [2] (setting [3]) is not above 1000 nM.
